Tests used:
[1] = background statement; cited from earlier work
[2] = cited from earlier work
[3] = Solubility in solvents (qualitative); format: physicochemical
[4] = Crystal particle size (scanning electron micrograph of crystal morphology); format: physicochemical; settings: for average particle size: crystal product, SEM
Procedure: (§1) The crystal habit of the hydrate of dimethylaminomicheliolide fumarate is studied in the present disclosure, and a scanning electron micrograph thereof is shown in FIG. 3. —The crystal has a regular block crystal habit, and the surface of the particle is smooth without agglomeration, meanwhile, the crystal has a large average particle size that can reach 300 μm, a bulk density of 0.65 g/mL, and an angle of repose of 32°. The product features high bulk density and good fluidity. In comparison, the crystalline form A prepared using the natural cooling recrystallization method disclosed in patent CN103724307B has a primary particle size of 35.8 μm, a bulk density of mere 0.270 g/mL and an angle of repose of 62°, and a scanning electron micrograph thereof is shown in FIG. 4.

[5] = Angle of repose (fluidity); format: physicochemical; settings: crystal product without auxiliary materials
Procedure: as §1
The hydrate of the present disclosure has good fluidity and is more suitable for being prepared as a medicament at a later stage. It is well known that the fluidity of an active ingredient per se is generally hard to meet the filling conditions of capsules or microcapsules, and auxiliary materials such as pregelatinized starch, silica and magnesium stearate are required to meet the requirements for fluidity by the filling conditions so as to achieve the desired quality of dosage forms and production efficiency. Taking the specification of 100 mg capsules as an example, if other forms such as crystalline form A are used as active ingredients, the weight of capsule contents reaches about 310 mg after auxiliary materials are added, and thus the largest 0 # capsule shell must be used, and larger specification such as capsules containing 200 mg of active ingredients cannot be prepared.

[6] = Bulk density of crystal product; format: physicochemical
Procedure: as §1

[7] = Stability of the hydrate at 45° C., humidity 75%, 30 days (XRD and purity analysis); format: physicochemical
Procedure: The stability of the hydrate of dimethylaminomicheliolide fumarate is investigated in the present disclosure. The […] crystal compound product is uniformly distributed in an open Petri dish. The temperature is controlled at 45° C., the humidity is 75%, and the sample thickness is less than 5 mm. The Petri dish is hermetically placed in a drier for 30 days. Then the samples placed for 7, 14 and 30 days were examined by XRD and compared with the results on day 0. […] Meanwhile, the samples at days 7, 14 and 30 are subjected to purity analysis. […] By combining the XRD patterns and the results of the purity analysis, the hydrate of dimethylaminomicheliolide fumarate is shown to have good stability.

## CC1=C2CC[C@@](C)(O)[C@@H]2[C@H]2OC(=O)[C@@H](CN(C)C)[C@@H]2CC1 [DMAMCL, dimethylaminomicheliolide]
[1]
  solubility in water: improved solubility in water to a certain degree relative to MCL
[2]; background statement
  stability on long-term storage: unstable

## CC1=C2CC[C@@](C)(O)[C@@H]2[C@H]2OC(=O)[C@@H](CN(C)C)[C@@H]2CC1.O=C(O)/C=C/C(=O)O [Dimethylaminomicheliolide fumarate]
[3]; in cyclohexane, n-hexane, n-heptane, dichloromethane, isopropyl ether and toluene
  solubility: almost insoluble
[3]; in water, methanol, ethanol, tetrahydrofuran, 1,4-dioxane, acetone, acetonitrile and isopropyl acetate
  solubility: soluble

## CC1=C2CC[C@@](C)(O)[C@@H]2[C@H]2OC(=O)[C@@H](CN(C)C)[C@@H]2CC1.O=C(O)/C=C/C(=O)O [Example 1, hydrate of dimethylaminomicheliolide fumarate]
[4]
  average particle size: ≤ 300 μm
[5]
  angle of repose: 32.5 °
[6]
  bulk density: 0.646 g/mL

## CC1=C2CC[C@@](C)(O)[C@@H]2[C@H]2OC(=O)[C@@H](CN(C)C)[C@@H]2CC1.O=C(O)/C=C/C(=O)O [Example 2, hydrate of dimethylaminomicheliolide fumarate]
[4]
  average particle size: ≤ 300 μm
[5]
  angle of repose: 32 °
[6]
  bulk density: 0.655 g/mL

## CC1=C2CC[C@@](C)(O)[C@@H]2[C@H]2OC(=O)[C@@H](CN(C)C)[C@@H]2CC1.O=C(O)/C=C/C(=O)O [Example 3, hydrate of dimethylaminomicheliolide fumarate]
[4]
  average particle size: ≤ 300 μm
[5]
  angle of repose: 32 °
[6]
  bulk density: 0.65 g/mL

## CC1=C2CC[C@@](C)(O)[C@@H]2[C@H]2OC(=O)[C@@H](CN(C)C)[C@@H]2CC1.O=C(O)/C=C/C(=O)O [Example 4, hydrate of dimethylaminomicheliolide fumarate]
[4]
  average particle size: ≤ 300 μm
[5]
  angle of repose: 32.2 °
[6]
  bulk density: 0.659 g/mL

## CC1=C2CC[C@@](C)(O)[C@@H]2[C@H]2OC(=O)[C@@H](CN(C)C)[C@@H]2CC1.O=C(O)/C=C/C(=O)O [Example 5, hydrate of dimethylaminomicheliolide fumarate]
[4]
  average particle size: ≤ 300 μm
[5]
  angle of repose: 32 °
[6]
  bulk density: 0.645 g/mL

## CC1=C2CC[C@@](C)(O)[C@@H]2[C@H]2OC(=O)[C@@H](CN(C)C)[C@@H]2CC1.O=C(O)/C=C/C(=O)O [Example 6, hydrate of dimethylaminomicheliolide fumarate]
[4]
  average particle size: ≤ 300 μm
[5]
  angle of repose: 32.3 °
[6]
  bulk density: 0.65 g/mL

## CC1=C2CC[C@@](C)(O)[C@@H]2[C@H]2OC(=O)[C@@H](CN(C)C)[C@@H]2CC1.O=C(O)/C=C/C(=O)O [Example 7, hydrate of dimethylaminomicheliolide fumarate]
[4]
  average particle size: ≤ 300 μm
[5]
  angle of repose: 32 °
[6]
  bulk density: 0.65 g/mL

## CC1=C2CC[C@@](C)(O)[C@@H]2[C@H]2OC(=O)[C@@H](CN(C)C)[C@@H]2CC1.O=C(O)/C=C/C(=O)O [Example 8, hydrate of dimethylaminomicheliolide fumarate]
[4]
  average particle size: ≤ 300 μm
[5]
  angle of repose: 32.1 °
[6]
  bulk density: 0.654 g/mL

## CC1=C2CC[C@@](C)(O)[C@@H]2[C@H]2OC(=O)[C@@H](CN(C)C)[C@@H]2CC1.O=C(O)/C=C/C(=O)O [Example 9, hydrate of dimethylaminomicheliolide fumarate]
[4]
  average particle size: ≤ 300 μm
[5]
  angle of repose: 32.3 °
[6]
  bulk density: 0.645 g/mL

## CC1=C2CC[C@@](C)(O)[C@@H]2[C@H]2OC(=O)[C@@H](CN(C)C)[C@@H]2CC1.O=C(O)/C=C/C(=O)O [crystalline form A, dimethylaminomicheliolide fumarate]
[4]; form A from natural cooling recrystallization, method of CN103724307B
  primary particle size: 35.8 μm
[5]
  angle of repose: 62 °
[6]
  bulk density: 0.270 g/mL
[2]; prone to transformation
  stability of the crystalline form: poor stability

## CC1=C2CC[C@@](C)(O)[C@@H]2[C@H]2OC(=O)[C@@H](CN(C)C)[C@@H]2CC1.O=C(O)/C=C/C(=O)O [hydrate of dimethylaminomicheliolide fumarate]
[4]
  average particle size: ≤ 300 μm
[5]
  angle of repose: 32 °
[5]; listed as hydrate of dimethylaminomicheliolide fumarate in the crystalline form D
  angle of repose: 32 °
[7]; day 7
  change in purity vs day 0: 0.015%
[7]; day 14
  change in purity vs day 0: 0.027%
[7]; day 30
  change in purity vs day 0: 0.046%
[7]; days 7, 14 and 30 vs day 0
  change in the XRD pattern: no significant change
[6]
  bulk density: 0.65 g/mL

## C=C1C(=O)O[C@H]2[C@H]1CCC(C)=C1CC[C@@](C)(O)[C@@H]12 [micheliolide]
[1]
  solubility in water: poor solubility in water

From patent US12319666B2, “Hydrate of dimethylaminomicheliolide fumarate and preparation method therefor and use thereof” (priority 2020, dated 2025)
